Tests used:
Assay type in all cases: in vivo
wheat = test: Crop safety study in greenhouse; settings: 7.5-37.5 g a.i./hm^2; pre-emergence and post-emergence application
Description: (§1) Seeds of soybean, cotton, maize, wheat and rice were sown in nutrition soil in paper pot (9 cm diameter), covered with soil in 1 cm and grown in the greenhouse under good growth conditions (temperature, atmospheric humidity, water supply). The compounds of the present invention as emulsifiable concentrate, were applied in pre-emergence and post-emergence treatment by track sprayer (Engineer Research Ltd., pressure 1.95 kg/cm^2, volume 500 L/hm^2, track speed 1.48 km/h). Pre-emergence treatment was conducted after seeding 24 hours and post-emergence treatment was done when the respective weeds reached predetermined leaf stage (soybean and cotton at 2- to 4-leaf stage and maize, wheat and rice at 3-leaf stage), the state of growth of the respective crops were visually observed to determine the safety in accordance with the following evaluation standard.
(§2) Safety rating scale (%): 0 means no damage to crops; 100 means to kill crops completely.

rice = test: Crop safety study in greenhouse; settings: 7.5-37.5 g a.i./hm^2; pre-emergence and post-emergence application
Description: as §1, §2

maize = test: Crop safety study in greenhouse; settings: 7.5-37.5 g a.i./hm^2; pre-emergence and post-emergence application
Description: as §1, §2

[1] = system: Abutilon theophrasti Medic.; test: Bioassay of herbicidal activity in greenhouse (further screening)
How it was run: (§3)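 Visual growth inhibition rating (0 no effect to 100 all weeds dead or not emerged) after track-sprayer application (500 L/hm²) of emulsifiable concentrate. Treatments either pre-emergence, 24 h after sowing, or post-emergence at 2–3-leaf grass and 2–4-leaf broad-leaf stage, greenhouse-grown.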

[2] = system: Setaria glauca (L.) Beauv.; test: as above
How it was run: as §3

Zinnia elegans Jacq. = test: as above
How it was run: as §3

[3] = system: Echinochloa crus-galli (L.) Beauv.; test: as above
How it was run: as §3

[4] = system: broad-leaf weeds and grass weeds; test: General screening of herbicidal activity in greenhouse; settings: 1000 g a.i./hm^2
How it was run: as §3

For `CC(C)C(=O)OCC1(C)CC(c2cc(-n3c(=O)cc(C(F)(F)F)n(C)c3=O)c(F)cc2Cl)=NO1` (stereo not shown) [Compound 46], the “Crop safety, wheat” value (wheat) was “good safety”, the “Crop safety, rice” value (rice) was “good safety” and the “Crop safety, maize” value (maize) was “good safety”. For the same molecule, the “Growth inhibition rate, Post-emergence treatment, Abutilon theophrasti Medic.” value ([1]; dose 7.5 g a.i./hm^2) was 98%, the “Growth inhibition rate, Post-emergence treatment, Abutilon theophrasti Medic.” value ([1]; dose 15 g a.i./hm^2) was 100% and the “Growth inhibition rate, Post-emergence treatment, Abutilon theophrasti Medic.” value ([1]; dose 37.5 g a.i./hm^2) was 100%. For the same molecule, the “Growth inhibition rate, Post-emergence treatment, Abutilon theophrasti Medic.” value ([1]; dose 150 g a.i./hm^2) was 100%, the “Growth inhibition rate, Post-emergence treatment, Abutilon theophrasti Medic.” value ([1]; dose 600 g a.i./hm^2) was 100% and the “Growth inhibition rate, Pre-emergence treatment, Abutilon theophrasti Medic.” value ([1]; dose 7.5 g a.i./hm^2) was 50%. The “Growth inhibition rate, Pre-emergence treatment, Abutilon theophrasti Medic.” value ([1]; dose 15 g a.i./hm^2) was 100%, the “Growth inhibition rate, Pre-emergence treatment, Abutilon theophrasti Medic.” value ([1]; dose 37.5 g a.i./hm^2) was 100% and the “Growth inhibition rate, Pre-emergence treatment, Abutilon theophrasti Medic.” value ([1]; dose 150 g a.i./hm^2) was 100%. The “Growth inhibition rate, Pre-emergence treatment, Abutilon theophrasti Medic.” value ([1]; dose 600 g a.i./hm^2) was 100%, the “Growth inhibition rate, Post-emergence treatment, Setaria glauca (L.) Beauv.” value ([2]; dose 7.5 g a.i./hm^2) was 45% and the “Growth inhibition rate, Post-emergence treatment, Setaria glauca (L.) Beauv.” value ([2]; dose 15 g a.i./hm^2) was 55%. The “Growth inhibition rate, Post-emergence treatment, Setaria glauca (L.) Beauv.” value ([2]; dose 37.5 g a.i./hm^2) was 55%, the “Growth inhibition rate, Post-emergence treatment, Setaria glauca (L.) Beauv.” value ([2]; dose 150 g a.i./hm^2) was 80% and the “Growth inhibition rate, Post-emergence treatment, Setaria glauca (L.) Beauv.” value ([2]; dose 600 g a.i./hm^2) was 100%. For the same molecule, the “Growth inhibition rate, Pre-emergence treatment, Setaria glauca (L.) Beauv.” value ([2]; dose 7.5 g a.i./hm^2) was 75%, the “Growth inhibition rate, Pre-emergence treatment, Setaria glauca (L.) Beauv.” value ([2]; dose 15 g a.i./hm^2) was 60% and the “Growth inhibition rate, Pre-emergence treatment, Setaria glauca (L.) Beauv.” value ([2]; dose 37.5 g a.i./hm^2) was 95%. For the same molecule, the “Growth inhibition rate, Pre-emergence treatment, Setaria glauca (L.) Beauv.” value ([2]; dose 150 g a.i./hm^2) was 100%, the “Growth inhibition rate, Pre-emergence treatment, Setaria glauca (L.) Beauv.” value ([2]; dose 600 g a.i./hm^2) was 100% and the “Growth inhibition rate, Post-emergence treatment, Zinnia elegans Jacq.” value (Zinnia elegans Jacq.; dose 7.5 g a.i./hm^2) was 98%. The “Growth inhibition rate, Post-emergence treatment, Zinnia elegans Jacq.” value (Zinnia elegans Jacq.; dose 15 g a.i./hm^2) was 98%, the “Growth inhibition rate, Post-emergence treatment, Zinnia elegans Jacq.” value (Zinnia elegans Jacq.; dose 37.5 g a.i./hm^2) was 100% and the “Growth inhibition rate, Post-emergence treatment, Zinnia elegans Jacq.” value (Zinnia elegans Jacq.; dose 150 g a.i./hm^2) was 100%. For the same molecule, the “Growth inhibition rate, Post-emergence treatment, Zinnia elegans Jacq.” value (Zinnia elegans Jacq.; dose 600 g a.i./hm^2) was 100%, the “Growth inhibition rate, Pre-emergence treatment, Zinnia elegans Jacq.” value (Zinnia elegans Jacq.; dose 7.5 g a.i./hm^2) was 40% and the “Growth inhibition rate, Pre-emergence treatment, Zinnia elegans Jacq.” value (Zinnia elegans Jacq.; dose 15 g a.i./hm^2) was 45%. The “Growth inhibition rate, Pre-emergence treatment, Zinnia elegans Jacq.” value (Zinnia elegans Jacq.; dose 37.5 g a.i./hm^2) was 95%, the “Growth inhibition rate, Pre-emergence treatment, Zinnia elegans Jacq.” value (Zinnia elegans Jacq.; dose 150 g a.i./hm^2) was 100% and the “Growth inhibition rate, Pre-emergence treatment, Zinnia elegans Jacq.” value (Zinnia elegans Jacq.; dose 600 g a.i./hm^2) was 100%. For the same molecule, the “Growth inhibition rate, Post-emergence treatment, Echinochloa crus-galli (L.) Beauv.” value ([3]; dose 7.5 g a.i./hm^2) was 20%, the “Growth inhibition rate, Post-emergence treatment, Echinochloa crus-galli (L.) Beauv.” value ([3]; dose 15 g a.i./hm^2) was 25% and the “Growth inhibition rate, Post-emergence treatment, Echinochloa crus-galli (L.) Beauv.” value ([3]; dose 37.5 g a.i./hm^2) was 30%. The “Growth inhibition rate, Post-emergence treatment, Echinochloa crus-galli (L.) Beauv.” value ([3]; dose 150 g a.i./hm^2) was 75%, the “Growth inhibition rate, Post-emergence treatment, Echinochloa crus-galli (L.) Beauv.” value ([3]; dose 600 g a.i./hm^2) was 98% and the “Growth inhibition rate, Pre-emergence treatment, Echinochloa crus-galli (L.) Beauv.” value ([3]; dose 7.5 g a.i./hm^2) was 10%. The “Growth inhibition rate, Pre-emergence treatment, Echinochloa crus-galli (L.) Beauv.” value ([3]; dose 15 g a.i./hm^2) was 15%, the “Growth inhibition rate, Pre-emergence treatment, Echinochloa crus-galli (L.) Beauv.” value ([3]; dose 37.5 g a.i./hm^2) was 50% and the “Growth inhibition rate, Pre-emergence treatment, Echinochloa crus-galli (L.) Beauv.” value ([3]; dose 150 g a.i./hm^2) was 95%. For the same molecule, the “Growth inhibition rate, Pre-emergence treatment, Echinochloa crus-galli (L.) Beauv.” value ([3]; dose 600 g a.i./hm^2) was 100% and the “pre-emergence and post-emergence herbicidal activity against broad-leaf weeds and grass weeds” value [4] was “good”.
`Cn1c(C(F)(F)F)cc(=O)n(-c2cc(C3=NOC(C)(COC(=O)COc4ccc(Cl)cc4Cl)C3)c(Cl)cc2F)c1=O` (stereo not shown) [Compound 83] was tested, and the “Crop safety, wheat” value (wheat) was “good safety”, the “Crop safety, rice” value (rice) was “good safety” and the “Crop safety, maize” value (maize) was “good safety”. For the same molecule, the “Growth inhibition rate, Post-emergence treatment, Abutilon theophrasti Medic.” value ([1]; dose 7.5 g a.i./hm^2) was 65%, the “Growth inhibition rate, Post-emergence treatment, Abutilon theophrasti Medic.” value ([1]; dose 15 g a.i./hm^2) was 98% and the “Growth inhibition rate, Post-emergence treatment, Abutilon theophrasti Medic.” value ([1]; dose 37.5 g a.i./hm^2) was 100%. The “Growth inhibition rate, Post-emergence treatment, Abutilon theophrasti Medic.” value ([1]; dose 150 g a.i./hm^2) was 100%, the “Growth inhibition rate, Post-emergence treatment, Abutilon theophrasti Medic.” value ([1]; dose 600 g a.i./hm^2) was 100% and the “Growth inhibition rate, Pre-emergence treatment, Abutilon theophrasti Medic.” value ([1]; dose 7.5 g a.i./hm^2) was 0%. For the same molecule, the “Growth inhibition rate, Pre-emergence treatment, Abutilon theophrasti Medic.” value ([1]; dose 15 g a.i./hm^2) was 30%, the “Growth inhibition rate, Pre-emergence treatment, Abutilon theophrasti Medic.” value ([1]; dose 37.5 g a.i./hm^2) was 50% and the “Growth inhibition rate, Pre-emergence treatment, Abutilon theophrasti Medic.” value ([1]; dose 150 g a.i./hm^2) was 100%. For the same molecule, the “Growth inhibition rate, Pre-emergence treatment, Abutilon theophrasti Medic.” value ([1]; dose 600 g a.i./hm^2) was 100%, the “Growth inhibition rate, Post-emergence treatment, Setaria glauca (L.) Beauv.” value ([2]; dose 7.5 g a.i./hm^2) was 30% and the “Growth inhibition rate, Post-emergence treatment, Setaria glauca (L.) Beauv.” value ([2]; dose 15 g a.i./hm^2) was 45%. The “Growth inhibition rate, Post-emergence treatment, Setaria glauca (L.) Beauv.” value ([2]; dose 37.5 g a.i./hm^2) was 50%, the “Growth inhibition rate, Post-emergence treatment, Setaria glauca (L.) Beauv.” value ([2]; dose 150 g a.i./hm^2) was 70% and the “Growth inhibition rate, Post-emergence treatment, Setaria glauca (L.) Beauv.” value ([2]; dose 600 g a.i./hm^2) was 85%. For the same molecule, the “Growth inhibition rate, Pre-emergence treatment, Setaria glauca (L.) Beauv.” value ([2]; dose 7.5 g a.i./hm^2) was 10%, the “Growth inhibition rate, Pre-emergence treatment, Setaria glauca (L.) Beauv.” value ([2]; dose 15 g a.i./hm^2) was 15% and the “Growth inhibition rate, Pre-emergence treatment, Setaria glauca (L.) Beauv.” value ([2]; dose 37.5 g a.i./hm^2) was 35%. The “Growth inhibition rate, Pre-emergence treatment, Setaria glauca (L.) Beauv.” value ([2]; dose 150 g a.i./hm^2) was 80%, the “Growth inhibition rate, Pre-emergence treatment, Setaria glauca (L.) Beauv.” value ([2]; dose 600 g a.i./hm^2) was 100% and the “Growth inhibition rate, Post-emergence treatment, Zinnia elegans Jacq.” value (Zinnia elegans Jacq.; dose 7.5 g a.i./hm^2) was 65%. The “Growth inhibition rate, Post-emergence treatment, Zinnia elegans Jacq.” value (Zinnia elegans Jacq.; dose 15 g a.i./hm^2) was 90%, the “Growth inhibition rate, Post-emergence treatment, Zinnia elegans Jacq.” value (Zinnia elegans Jacq.; dose 37.5 g a.i./hm^2) was 98% and the “Growth inhibition rate, Post-emergence treatment, Zinnia elegans Jacq.” value (Zinnia elegans Jacq.; dose 150 g a.i./hm^2) was 100%. The “Growth inhibition rate, Post-emergence treatment, Zinnia elegans Jacq.” value (Zinnia elegans Jacq.; dose 600 g a.i./hm^2) was 100%, the “Growth inhibition rate, Pre-emergence treatment, Zinnia elegans Jacq.” value (Zinnia elegans Jacq.; dose 7.5 g a.i./hm^2) was 0% and the “Growth inhibition rate, Pre-emergence treatment, Zinnia elegans Jacq.” value (Zinnia elegans Jacq.; dose 15 g a.i./hm^2) was 10%. For the same molecule, the “Growth inhibition rate, Pre-emergence treatment, Zinnia elegans Jacq.” value (Zinnia elegans Jacq.; dose 37.5 g a.i./hm^2) was 50%, the “Growth inhibition rate, Pre-emergence treatment, Zinnia elegans Jacq.” value (Zinnia elegans Jacq.; dose 150 g a.i./hm^2) was 100% and the “Growth inhibition rate, Pre-emergence treatment, Zinnia elegans Jacq.” value (Zinnia elegans Jacq.; dose 600 g a.i./hm^2) was 100%. For the same molecule, the “Growth inhibition rate, Post-emergence treatment, Echinochloa crus-galli (L.) Beauv.” value ([3]; dose 7.5 g a.i./hm^2) was 25%, the “Growth inhibition rate, Post-emergence treatment, Echinochloa crus-galli (L.) Beauv.” value ([3]; dose 15 g a.i./hm^2) was 25% and the “Growth inhibition rate, Post-emergence treatment, Echinochloa crus-galli (L.) Beauv.” value ([3]; dose 37.5 g a.i./hm^2) was 30%. The “Growth inhibition rate, Post-emergence treatment, Echinochloa crus-galli (L.) Beauv.” value ([3]; dose 150 g a.i./hm^2) was 45%, the “Growth inhibition rate, Post-emergence treatment, Echinochloa crus-galli (L.) Beauv.” value ([3]; dose 600 g a.i./hm^2) was 90% and the “Growth inhibition rate, Pre-emergence treatment, Echinochloa crus-galli (L.) Beauv.” value ([3]; dose 7.5 g a.i./hm^2) was 10%. For the same molecule, the “Growth inhibition rate, Pre-emergence treatment, Echinochloa crus-galli (L.) Beauv.” value ([3]; dose 15 g a.i./hm^2) was 10%, the “Growth inhibition rate, Pre-emergence treatment, Echinochloa crus-galli (L.) Beauv.” value ([3]; dose 37.5 g a.i./hm^2) was 25% and the “Growth inhibition rate, Pre-emergence treatment, Echinochloa crus-galli (L.) Beauv.” value ([3]; dose 150 g a.i./hm^2) was 90%. The “Growth inhibition rate, Pre-emergence treatment, Echinochloa crus-galli (L.) Beauv.” value ([3]; dose 600 g a.i./hm^2) was 100% and the “pre-emergence and post-emergence herbicidal activity against broad-leaf weeds and grass weeds” value [4] was “good”.

Source: US10550111B2, “Pyrimidine urea compound containing isoxazolines and use thereof” (SHENYANG SINOCHEM AGROCHEMICALS R&D CO., LTD, priority 2014, dated 2020)
